Measurements reported in PubChem BioAssay (NCI).
Where “and” joins values, the source holds several entries; their conditions need not be identical. Identical values can stand only once.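 Here, GI50 denotes the concentration required for 50% inhibition of growth. TGI: total growth inhibition.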

How the values were obtained:
Test in all cases: growth of human tumour cells (NCI), 384-well format
HT29 colon = system: HT29 colon
CAKI-1 renal = system: CAKI-1 renal
RXF 393 renal = system: RXF 393 renal
NCI-H322M lung = system: NCI-H322M lung
SF-268 CNS = system: SF-268 CNS
COLO 205 colon = system: COLO 205 colon
HS 578T breast = system: HS 578T breast
NCI-H226 lung = system: NCI-H226 lung
HCC-2998 colon = system: HCC-2998 colon
MDA-MB-435 melanoma = system: MDA-MB-435 melanoma
BT-549 breast = system: BT-549 breast
A498 renal = system: A498 renal
HCT-116 colon = system: HCT-116 colon
KM12 colon = system: KM12 colon
SK-MEL-5 melanoma = system: SK-MEL-5 melanoma
MOLT-4 leukemia = system: MOLT-4 leukemia
HOP-92 NSCLC = system: HOP-92 NSCLC
UACC-257 melanoma = system: UACC-257 melanoma
K-562 leukemia = system: K-562 leukemia
SF-295 CNS = system: SF-295 CNS
DU-145 prostate = system: DU-145 prostate
NCI/ADR-RES ovarian = system: NCI/ADR-RES ovarian
NCI-H460 NSCLC = system: NCI-H460 NSCLC
SK-OV-3 ovarian = system: SK-OV-3 ovarian
TK-10 renal = system: TK-10 renal
SN12C renal = system: SN12C renal
SR leukemia = system: SR leukemia
PC-3 prostate = system: PC-3 prostate
NCI-H522 lung = system: NCI-H522 lung

Which GI50 (HT29 colon) does the source give for `Cc1cc(C(=O)NC(CCC(=O)O)C(=O)O)sc1CCC1CNc2nc(N)[nH]c(=O)c2C1` (stereo not drawn) here?
Its GI50 is < 10 nM and 17 nM.

And the TGI (HT29 colon)?
The TGI was 28.5 nM and 46.4 nM.

And the GI50 (CAKI-1 renal)?
The GI50 was less than 10 nM.

What about the TGI (CAKI-1 renal) of the same compound?
The TGI was less than 10 nM.

And the GI50 (RXF 393 renal)?
The GI50 was less than 10 nM.

What about the TGI (RXF 393 renal) of the same compound?
The TGI was less than 10 nM.

And the GI50 (NCI-H322M lung)?
Its GI50 is 17.8 nM and 20.2 nM.

And the TGI (NCI-H322M lung)?
Its TGI is 37 nM and 43.5 nM.

And the GI50 (SF-268 CNS)?
The GI50 was less than 10 nM.

And the TGI (SF-268 CNS)?
The TGI was < 10 nM and 18.7 nM.

What about the GI50 (COLO 205 colon) of the same compound?
Its GI50 is 28.5 nM and 29.7 nM.

And the TGI (COLO 205 colon)?
Its TGI is 81.6 nM and 141 nM.

What about the GI50 (HS 578T breast) of the same compound?
The GI50 was 22 nM and 25.9 nM.

And the TGI (HS 578T breast)?
The TGI was 60.1 nM and 107 nM.

And the GI50 (NCI-H226 lung)?
The GI50 was 24.2 nM and 25.8 nM.

What about the TGI (NCI-H226 lung) of the same compound?
The TGI was 59.1 nM and 75.1 nM.

And the GI50 (HCC-2998 colon)?
Its GI50 is 22.4 nM and 51.4 nM.

And the TGI (HCC-2998 colon)?
The TGI was 77.2 nM and 378 nM.

What about the GI50 (MDA-MB-435 melanoma) of the same compound?
Its GI50 is 17.3 nM and 16.7 nM.

And the TGI (MDA-MB-435 melanoma)?
The TGI was 38.2 nM and 38.7 nM.

What about the GI50 (BT-549 breast) of the same compound?
The GI50 was 19.3 nM and 18.2 nM.

What about the TGI (BT-549 breast) of the same compound?
Its TGI is 37.5 nM and 36.4 nM.

And the GI50 (A498 renal)?
The GI50 was less than 10 nM.

And the TGI (A498 renal)?
The TGI was 11.3 nM and 25.3 nM.

What about the GI50 (HCT-116 colon) of the same compound?
Its GI50 is < 10 nM and 15.9 nM.

What about the TGI (HCT-116 colon) of the same compound?
Its TGI is 24.8 nM and 39.8 nM.

And the GI50 (KM12 colon)?
Its GI50 is 25.6 nM and 28.7 nM.

What about the TGI (KM12 colon) of the same compound?
Its TGI is 97.6 nM and 196 nM.

What about the GI50 (SK-MEL-5 melanoma) of the same compound?
Its GI50 is 24.5 nM and 33.3 nM.

And the TGI (SK-MEL-5 melanoma)?
Its TGI is 91.6 nM and 202 nM.

And the GI50 (MOLT-4 leukemia)?
The GI50 was less than 10 nM.

What about the TGI (MOLT-4 leukemia) of the same compound?
The TGI was 12.8 nM and 16.8 nM.

And the GI50 (HOP-92 NSCLC)?
Its GI50 is less than 10 nM.

And the TGI (HOP-92 NSCLC)?
The TGI was < 10 nM and 14.9 nM.

And the GI50 (UACC-257 melanoma)?
The GI50 was 12.9 nM and 18.3 nM.

What about the TGI (UACC-257 melanoma) of the same compound?
The TGI was 36.5 nM and 46.9 nM.

And the GI50 (K-562 leukemia)?
The GI50 was less than 10 nM.

What about the TGI (K-562 leukemia) of the same compound?
Its TGI is less than 10 nM.

And the GI50 (SF-295 CNS)?
Its GI50 is 18.4 nM and 18.6 nM.

What about the TGI (SF-295 CNS) of the same compound?
The TGI was 35.4 nM and 36.3 nM.

What about the GI50 (DU-145 prostate) of the same compound?
The GI50 was less than 10 nM.

What about the TGI (DU-145 prostate) of the same compound?
Its TGI is < 10 nM and 29.4 nM.

And the GI50 (NCI/ADR-RES ovarian)?
Its GI50 is 19 nM and 17.5 nM.

What about the TGI (NCI/ADR-RES ovarian) of the same compound?
Its TGI is 35.6 nM and 34 nM.

And the GI50 (NCI-H460 NSCLC)?
The GI50 was < 10 nM and 10.9 nM.

And the TGI (NCI-H460 NSCLC)?
The TGI was greater than 100000 nM.

And the GI50 (SK-OV-3 ovarian)?
Its GI50 is less than 10 nM.

And the TGI (SK-OV-3 ovarian)?
Its TGI is less than 10 nM.

And the GI50 (TK-10 renal)?
Its GI50 is less than 10 nM.

What about the TGI (TK-10 renal) of the same compound?
Its TGI is less than 10 nM.

And the GI50 (SN12C renal)?
Its GI50 is less than 10 nM.

What about the TGI (SN12C renal) of the same compound?
Its TGI is < 10 nM and 23.4 nM.

What about the GI50 (SR leukemia) of the same compound?
Its GI50 is greater than 100000 nM.

What about the TGI (SR leukemia) of the same compound?
Its TGI is greater than 100000 nM.

And the GI50 (PC-3 prostate)?
The GI50 was less than 10 nM.

And the TGI (PC-3 prostate)?
The TGI was less than 10 nM.

What about the GI50 (NCI-H522 lung) of the same compound?
Its GI50 is < 10 nM and 17.6 nM.

And the TGI (NCI-H522 lung)?
Its TGI is 18.7 nM and 34.3 nM.
